# According to publication PMC7150891, “Mertansine Inhibits mRNA Expression and Enzyme Activities of Cytochrome P450s and Uridine 5′-Diphospho-Glucuronosyltransferases in Human Hepatocytes and Liver Microsomes” (Pharmaceutics, 2020):
# Entries after “also recorded” stand apart in the source; their conditions may differ.
# Experiments:
# UGT1A1 = molecular target: T1, UGT1A1 (Homo sapiens, UniProt P22309); assay: Inhibition of UGT1A1-catalyzed SN-38 glucuronidation in ultrapooled human liver microsomes; format: in vitro ADME
# T1 construct: ultrapooled human liver microsomes (0.2 mg/mL); from tissue; host or cells: human liver microsomes (ultrapooled)
# T1 sequence (P22309 26-533): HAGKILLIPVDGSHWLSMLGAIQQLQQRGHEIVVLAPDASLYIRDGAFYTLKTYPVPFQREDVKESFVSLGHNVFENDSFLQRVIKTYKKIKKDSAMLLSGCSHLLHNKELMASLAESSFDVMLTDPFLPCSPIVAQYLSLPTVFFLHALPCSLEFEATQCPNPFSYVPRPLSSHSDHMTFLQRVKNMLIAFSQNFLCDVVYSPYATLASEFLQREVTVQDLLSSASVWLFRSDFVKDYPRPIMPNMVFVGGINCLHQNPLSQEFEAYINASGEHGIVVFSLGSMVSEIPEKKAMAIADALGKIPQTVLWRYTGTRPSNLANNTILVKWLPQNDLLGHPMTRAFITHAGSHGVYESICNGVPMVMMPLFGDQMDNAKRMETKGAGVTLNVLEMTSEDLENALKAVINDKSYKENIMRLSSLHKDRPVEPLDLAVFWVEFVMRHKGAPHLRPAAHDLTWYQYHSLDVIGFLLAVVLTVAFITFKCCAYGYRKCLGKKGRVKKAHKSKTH
# Procedure: The inhibitory potential of mertansine on UGT1A1, UGT1A3, UGT1A4, UGT1A6, UGT1A9, and UGT2B7 activities was evaluated using liquid chromatography–tandem mass spectrometry (LC-MS/MS) with a cocktail of UGT substrates and ultrapooled human liver microsomes. Each incubation mixture was prepared to a final volume of 100 μL as follows: ultrapooled human liver microsomes (0.2 mg/mL), 5 mM UDPGA, 10 mM magnesium chloride, alamethicin (25 μg/mL), 50 mM Tris buffer (pH 7.4), various concentrations of mertansine in methanol (final concentrations of 0.01–50 μM), and the cocktail sets of UGT enzyme-specific substrates. Two cocktail sets were used: set A contained 0.5 μM SN-38 for UGT1A1, 2 μM chenodeoxycholic acid for UGT1A3, and 0.5 μM trifluoperazine for UGT1A4; and set B contained 1 μM N-acetylserotonin for UGT1A6, 0.2 μM mycophenolic acid for UGT1A9, and 1 μM naloxone for UGT2B7. The reactions were initiated by adding UDPGA and incubated in a shaking water bath for 60 min at 37 °C. […] Next, 50 μL of each supernatant of sets A and B was mixed, and aliquots (5 μL) were analyzed using LC-MS/MS. […]
# The LC-MS/MS system was comprised of an Agilent 6495 triple quadrupole mass spectrometer coupled with an Agilent 1290 Infinity system (Agilent Technologies, Wilmington, DE, USA). […] The electrospray ionization (ESI) source settings in both positive and negative ion modes were as follows: gas temperature, 200 °C; gas flow, 14 L/min; nebulizer, 40 psi; sheath gas temperature, 380 °C; sheath gas flow, 11 L/min; capillary voltage, 4500 V; and nozzle voltage, 500 V. Each metabolite was quantified via selected reaction monitoring in the negative ion mode (chenodeoxycholic acid 24-acyl-β-glucuronide, m/z 567.1 to 391.2; mycophenolic acid β-D-glucuronide, m/z 495.0 to 319.0; propofol glucuronide (IS), m/z 353.0 to 177.0) and in the positive ion mode (SN-38 glucuronide, m/z 568.9 to 392.9; trifluoperazine N-β-D-glucuronide, m/z 583.9 to 407.9; N-acetylserotonin β-D-glucuronide, m/z 394.0 to 219.0; naloxone 3-β-D-glucuronide, m/z 503.9 to 309.9; meloxicam (IS), m/z 351.9 to 115.0). […]
# CYP2B6 = assay: CYP2B6-catalyzed bupropion hydroxylase activity in human hepatocytes after 48 h treatment
# Procedure: Samples were incubated for 48 h at 37 °C in 5% CO2, and the medium was exchanged with 250 μL of fresh medium containing drugs or the vehicle every 24 h.
# The effects of mertansine on CYP1A2, CYP2B6, and CYP3A4 activities were evaluated. […] Mixtures were vortexed for 2 min and then centrifuged at 13,000 g for 4 min at 4 °C. The supernatant (40 µL) was diluted with 60 µL of deionized water and then mixed for 2 min by vortexing. An aliquot (5 µL) was analyzed using LC-MS/MS [37], and CYP1A2, CYP2B6, and CYP3A4 enzyme activities were expressed as formation rates (pmol/million cells/min).
# The percentage changes in enzymatic activities were calculated as (CYP activity with test compound treatment/CYP activity with vehicle control treatment) × 100. The IC50 (the concentration of the inhibitor needed for half-maximal inhibition) values were calculated using SigmaPlot ver. […] Ki (the inhibition constant) and the inhibition mode of UGT1A1, UGT1A3, and UGT1A4 activities were determined using Enzyme Kinetics ver. 1.1 (Systat Software, Inc.).
smiles,measurement,setting,value
"COc1cc2cc(c1Cl)N(C)C(=O)CC(OC(=O)C(C)N(C)C(=O)CCS)C1(C)OC1C(C)C1CC(O)(NC(=O)O1)C(OC)C=CC=C(C)C2 (centres unmarked) [mertansine, Mertansine]","Inhibition Mode, UGT1A1","UGT1A1; human liver microsomes, Dixon plot",noncompetitively inhibited; also recorded: noncompetitive inhibitor
same,Ki,"UGT1A1; human liver microsomes, SN-38 0.2–2 µM",13.5 µM
same,IC50,"UGT1A1; ultrapooled human liver microsomes, 0.5 µM SN-38 (cocktail)",16.2 µM
same,Mean decrease of CYP2B6-mediated bupropion hydroxylase activity,"CYP2B6; highest concentration (2500 nM), 48 h, mean of three human hepatocytes",63.5%
same,Decrease of CYP2B6-mediated bupropion hydroxylase activity compared to vehicle,"CYP2B6; mertansine 48 h, three human hepatocytes",23.9–93.1%
